{"source": "patent US11261189B2", "about": "“Substituted 2,4 diamino-quinoline as new medicament for fibrosis, autophagy and cathepsins B (CTSB), L (CTSL) and D (CTSD) related diseases” (Genoscience Pharma, priority 2018, dated 2022)", "system": "cathepsins B and L (CTSB/L)", "assay": "Overall cathepsins B and L (CTSB/L) peptidase activity in lysates of treated HepG2 cells (Z-FR-AMC substrate)", "format": "cell-based", "conditions": "for CTSB/L activity versus NT: 6 hours of treatment", "protocol": "Lysosomal functions was investigated in a hepatocellular carcinoma (HCC) cell line HepG2 after 6 hours and 24 hours of treatment with compound 2-3 (the hydrochloride salt form of compound 2-2) using functional assays of some lysosomal enzymes activity: two cysteine proteinases: cathepsin B (CTSB) and cathepsin L (CTSL), and one aspartic proteinase: cathepsin D (CTSD). Two sets of three concentrations of compound 2-3 (1 μM, 2 μM, and 4 μM for 6 hours, and 0.5 μM, 1 μM and 2 μM for 24 hours) were tested at least in triplicate and four independent experiments were performed. Salinomycin (7.5 μM for 6 hours and 24 hours) was used as a positive control.\nThe HepG2 cell line was maintained in DMEM (Dulbecco's Modified Eagle Media) high glucose (Cat #L0103-500, Dutscher) containing 1% penicillin-streptomycin (Cat #P06-07100, Dutscher) and 10% FBS (Fetal Bovine Serum) (Cat #11543407, Life Technologies). Cells were cultured at 37° C. with 5% CO2.\nThe day before the experiment, 6-well plates (Cat #353046, Dutscher) with 250,000 cells in 2.7 mL of medium per well were prepared.\nCompound 2-3 was dissolved with filtrated H2O mQ to make a 10 mM stock solution and serial working solutions (10× solutions) were prepared with the diluent (=culture medium with 0.4% H2O mQ) at 5 μM, 10 μM, 20 μM and 40 μM: the “dilution 1” is made from the 10 mM stock solution in the culture medium and the following serial dilutions were made in the diluent to maintain a constant percentage of H2O.\nSalinomycin [CAS 53003-10-4] was used as positive control and was dissolved with methanol to make a 10 mM stock solution and a 10× solution at 75 μM was prepared with the culture medium.\n300 μL of compound 2-3 10× solutions (solutions at 10 μM, 20 μM and 40 μM for 6 hours of treatment and solutions at 5 μM, 10 μM and 20 μM for 24 hours of treatment) or 300 μL of diluent (=non-treated (NT) condition) or 300 μL of Salinomycin 10× solution were dispensed in the appropriate wells (4 wells/condition). After cells treatment, 6-well plates were returned to incubator for 6 hours or 24 hours.\nAfter 6 hours or 24 hours of cells treatment, the medium was removed from each well. The cells were carefully rinsed with PBS (phosphate-buffered saline, Cat #L0615-500, Dutscher) and detached with 500 μL per well of a trypsin solution. After 5 min of trypsin (Cat #L0930-100, Dutscher) incubation at 37° C., 800 μL of medium was added per well and transferred to a 1.5 mL tube. Then, 800 μL of PBS was used to rinse each well and the corresponding solution was pooled in each corresponding 1.5 mL tube. […] Total protein concentration was assessed using the Bradford reagent (Cat #B6916-500ML, Sigma-Aldrich) and cellular lysates were stored at −80° C. until catalytic activity measurement. […]", "note": "Where a name gives a salt, the structure may show the parent alone.", "data": [{"molecule": "CC(C)(C)NC1CCN(c2cc(NCc3ccc(Cl)cc3)nc3ccccc23)CC1", "note": "[2-3, 2-(4-chlorobenzylamino)-4-(4-tert-butylaminopiperidin-1-yl)-quinoline Hydrochloride Salt]", "values": [{"measurement": "CTSB/L activity versus NT", "setting": "HepG2, 2 μM", "result": 78.0, "unit": "%"}, {"measurement": "CTSB/L activity versus NT", "setting": "HepG2, 4 μM", "result": 55.3, "unit": "%"}, {"measurement": "inhibition of cathepsins B and L (CTSB/L) compare to the control", "setting": "HepG2, 2 μM, 4 μM for 6 hours and 1 μM, 2 μM for 24 hours, p<0.05", "result": "statistically significant"}]}]}
